From PubChem BioAssay AID248 (DTP/NCI, 2004)
Several values for one entry are separate records, joined by “and”; a condition that tells them apart may be missing. Identical values can stand only once. Inconclusive results and toxic doses are left out. Cut-off read from the data, not from the text of the source: active = T/C of 150% or more; inactive = T/C below 125%.

Test system: L1210 leukemia ip in BDF1 mice, survival T/C
Assay: NCI In Vivo Anticancer Drug Screen. Data for tumor model L1210 Leukemia (intraperitoneal) in B6D2F1 (BDF1) mice
Conditions: endpoint: mean survival time, higher = longer survival
Procedure, shortened: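 Tumor was transplanted into mice, which were then dosed with test compound or vehicle alone. Survival was recorded for each group, and the treated figure was expressed relative to the control figure.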

[1] = dose: 50.0 mg/kg/injection, schedule: Q01DX009 (ip), vehicle: Klucel (hydroxypropylcellulose) (HPC)
[2] = dose: 50.0 mg/kg/injection, schedule: Q01DX009 (ip), vehicle: saline with Tween-80
[3] = dose: 75.0 mg/kg/injection, schedule: Q01DX001 (ip), vehicle: saline
[4] = dose: 100.0 mg/kg/injection, schedule: Q01DX009 (ip), vehicle: Klucel (hydroxypropylcellulose) (HPC)
[5] = dose: 100.0 mg/kg/injection, schedule: Q01DX009 (ip), vehicle: saline with Tween-80
[6] = dose: 100.0 mg/kg/injection, schedule: Q04DX003 (ip), vehicle: Klucel (hydroxypropylcellulose) (HPC)
[7] = dose: 100.0 mg/kg/injection, schedule: Q04DX003 (ip), vehicle: saline with Tween-80
[8] = dose: 100.0 mg/kg/injection, schedule: Q04DX003 (ip), vehicle: saline
[9] = dose: 150.0 mg/kg/injection, schedule: Q01DX001 (ip), vehicle: saline
[10] = dose: 200.0 mg/kg/injection, schedule: Q01DX009 (ip), vehicle: Klucel (hydroxypropylcellulose) (HPC)
[11] = dose: 200.0 mg/kg/injection, schedule: Q01DX009 (ip), vehicle: saline with Tween-80
[12] = dose: 200.0 mg/kg/injection, schedule: Q04DX003 (ip), vehicle: Klucel (hydroxypropylcellulose) (HPC)
[13] = dose: 200.0 mg/kg/injection, schedule: Q04DX003 (ip), vehicle: saline with Tween-80
[14] = dose: 200.0 mg/kg/injection, schedule: Q04DX003 (ip), vehicle: saline
[15] = dose: 100.0 mg/kg/injection, schedule: Q01DX001 (ip), vehicle: saline
[16] = dose: 200.0 mg/kg/injection, schedule: Q01DX001 (ip), vehicle: saline
[17] = dose: 400.0 mg/kg/injection, schedule: Q01DX001 (ip), vehicle: saline
[18] = dose: 400.0 mg/kg/injection, schedule: Q04DX003 (ip), vehicle: saline

Measured: T/C

C=CC1CN2CCC1CC2C(O)c1ccnc2ccc(OC)cc12 (stereo not given) (tested in a mixture with another compound)
inactive: [1] 97 % of control and 95 % of control | [2] 95 % of control | dose: 50.0 mg/kg/injection, schedule: Q04DX003 (ip), vehicle: other 95 % of control | [3] 100 % of control and 99 % of control | dose: 100.0 mg/kg/injection, schedule: Q01DX001 (ip), vehicle: carboxymethylcellulose (CMC) 98 % of control | dose: 100.0 mg/kg/injection, schedule: Q01DX001 (ip), vehicle: saline with Tween-80 96 % of control | [4] 97 % of control and 104 % of control | [5] 95 % of control | dose: 100.0 mg/kg/injection, schedule: Q04DX002 (ip), vehicle: Klucel (hydroxypropylcellulose) (HPC) 107 % of control | [6] 93 % of control | dose: 100.0 mg/kg/injection, schedule: Q04DX003 (ip), vehicle: other 103 % of control | [7] 103 % of control | [8] 102 % of control | [9] 86 % of control and 99 % of control | dose: 200.0 mg/kg/injection, schedule: Q01DX001 (ip), vehicle: carboxymethylcellulose (CMC) 102 % of control | dose: 200.0 mg/kg/injection, schedule: Q01DX001 (ip), vehicle: saline with Tween-80 96 % of control | [10] 97 % of control | [11] 101 % of control | dose: 200.0 mg/kg/injection, schedule: Q04DX002 (ip), vehicle: Klucel (hydroxypropylcellulose) (HPC) 96 % of control | [12] 93 % of control | dose: 200.0 mg/kg/injection, schedule: Q04DX003 (ip), vehicle: other 93 % of control | [13] 87 % of control | [14] 96 % of control | dose: 300.0 mg/kg/injection, schedule: Q01DX001 (ip), vehicle: saline 89 % of control and 91 % of control | dose: 400.0 mg/kg/injection, schedule: Q01DX001 (ip), vehicle: carboxymethylcellulose (CMC) 93 % of control | dose: 400.0 mg/kg/injection, schedule: Q01DX001 (ip), vehicle: saline with Tween-80 93 % of control | dose: 400.0 mg/kg/injection, schedule: Q04DX002 (ip), vehicle: Klucel (hydroxypropylcellulose) (HPC) 100 % of control

O=[N+]([O-])c1ccc([N+](=O)[O-])c2nsnc12
inactive: dose: 12.5 mg/kg/injection, schedule: Q04DX003 (ip), vehicle: Klucel (hydroxypropylcellulose) (HPC) 98 % of control | dose: 25.0 mg/kg/injection, schedule: Q04DX003 (ip), vehicle: Klucel (hydroxypropylcellulose) (HPC) 102 % of control

N#Cc1ccc2cn[nH]c2c1
inactive: [7] 92 % of control | [13] 101 % of control | dose: 400.0 mg/kg/injection, schedule: Q04DX003 (ip), vehicle: saline with Tween-80 99 % of control

C/C=C/C(=O)Nc1cccc(OC(=O)NC(C)(C)C)c1
inactive: [5] 91 % of control | dose: 400.0 mg/kg/injection, schedule: Q01DX009 (ip), vehicle: saline with Tween-80 86 % of control

Cc1nc(N)[nH]c(=O)c1Br
inactive: [4] 97 % of control | [6] 93 % of control | [10] 100 % of control | [12] 98 % of control | dose: 400.0 mg/kg/injection, schedule: Q04DX003 (ip), vehicle: Klucel (hydroxypropylcellulose) (HPC) 98 % of control

O=CC(Br)C(Br)c1ccccc1 (stereo not given)
inactive: [7] 98 % of control

COc1ccc(N)cc1NC(C)=O
inactive: [15] 102 % of control | [16] 110 % of control

CCOC(=O)CCN(C(=O)OCC)C(COCc1ccccc1)C(=O)OCC (stereo not given)
inactive: [15] 104 % of control | [16] 104 % of control | [17] 98 % of control

Cc1c(Cl)cccc1NS(=O)(=O)c1cccc([N+](=O)[O-])c1
inactive: [5] 90 % of control | [11] 87 % of control

CC(C)(C)CC(C)(C)c1ccc(OCCOC(=O)c2ccccc2C(=O)O)cc1
inactive: dose: 25.0 mg/kg/injection, schedule: Q01DX009 (ip), vehicle: Klucel (hydroxypropylcellulose) (HPC) 97 % of control | [1] 105 % of control | [4] 94 % of control

CCCCCCC(CCC)CCCCCC
inactive: dose: 100.0 mg/kg/injection, schedule: Q04DX002 (ip), vehicle: saline with Tween-80 98 % of control | dose: 200.0 mg/kg/injection, schedule: Q04DX002 (ip), vehicle: saline with Tween-80 104 % of control | dose: 400.0 mg/kg/injection, schedule: Q04DX002 (ip), vehicle: saline with Tween-80 98 % of control

COC(=O)c1cscc1C=O
inactive: [15] 100 % of control | dose: 100.0 mg/kg/injection, schedule: Q04DX003 (ip), vehicle: acetone 102 % of control | [8] 100 % of control | [16] 104 % of control | dose: 200.0 mg/kg/injection, schedule: Q04DX003 (ip), vehicle: acetone 95 % of control | [14] 94 % of control | [17] 93 % of control | dose: 400.0 mg/kg/injection, schedule: Q04DX003 (ip), vehicle: acetone 93 % of control | [18] 93 % of control

CCC(C)C(C)C(C)=O (stereo not given)
inactive: dose: 50.0 mg/kg/injection, schedule: Q01DX001 (ip), vehicle: saline 110 % of control | [15] 101 % of control | [16] 93 % of control

COc1ccc(OC)c(/C=C2\N=C(c3ccccc3)OC2=O)c1
inactive: dose: 100.0 mg/kg/injection, schedule: Q01DX001 (ip), vehicle: acetone 97 % of control | dose: 100.0 mg/kg/injection, schedule: Q01DX009 (ip), vehicle: saline 91 % of control | [8] 100 % of control | dose: 200.0 mg/kg/injection, schedule: Q01DX001 (ip), vehicle: acetone 101 % of control | dose: 200.0 mg/kg/injection, schedule: Q01DX009 (ip), vehicle: saline 94 % of control | [14] 96 % of control | dose: 400.0 mg/kg/injection, schedule: Q01DX001 (ip), vehicle: acetone 92 % of control | dose: 400.0 mg/kg/injection, schedule: Q01DX009 (ip), vehicle: saline 93 % of control | [18] 98 % of control

NC(N)=N/N=C(/C(=N\N=C(N)N)c1ccco1)c1ccco1
inactive: dose: 8.0 mg/kg/injection, schedule: Q01DX Z (oral), vehicle: methylcellulose (MC) 89 % of control | dose: 15.0 mg/kg/injection, schedule: Q01DX Z (ip), vehicle: methylcellulose (MC) 100 % of control | dose: 15.0 mg/kg/injection, schedule: Q01DX Z (oral), vehicle: methylcellulose (MC) 96 % of control | dose: 30.0 mg/kg/injection, schedule: Q01DX Z (oral), vehicle: methylcellulose (MC) 105 % of control

CCOC(=O)C(C)(C)Oc1ccc(OC(C)(C)C(=O)OCC)cc1
inactive: [4] 93 % of control | [10] 100 % of control | dose: 400.0 mg/kg/injection, schedule: Q01DX009 (ip), vehicle: Klucel (hydroxypropylcellulose) (HPC) 102 % of control

CSC(=O)C(C)(C)C
inactive: [3] 103 % of control | [9] 97 % of control

C=CC(C)(C)c1ccccc1O
inactive: [7] 95 % of control | [13] 104 % of control

CN1CCN(C(=O)Nc2cccc(F)c2)CC1
inactive: dose: 25.0 mg/kg/injection, schedule: Q01DX009 (ip), vehicle: saline with Tween-80 97 % of control | [2] 101 % of control | [5] 94 % of control and 96 % of control

O=C(COc1ccccc1)CC(O)(C(F)(F)F)C(F)(F)F
inactive: [7] 97 % of control | [13] 92 % of control
